From patent US10183011B2, “Anti-depression compounds” (Board of Regents of the University of Texas System, priority 2009, dated 2019)
“Also recorded” adds a separate entry of the source.

What was measured:
U2OS cells = assay: Calcium ionophore A23187-induced loss of mitochondrial membrane potential (TMRM dye release); assay type: cell-based
Source text: FIG. 22A, FIG. 22B, FIG. 22C, FIG. 22D, FIG. 22E and FIG. 22F: Example 45 Compound Preserves Mitochondrial Membrane Potential in Parallel to Proneurogenic Activity U2OS cells were loaded with tetramethylrhodamine methyl ester (TMRM) dye and then exposed to the calcium ionophore A23187 either in the presence or absence of test compounds. Example 45 Compound (FIG. 22A) preserved mitochondrial membrane potential following exposure to the calcium ionophore A23187 in a dose-dependent manner. The protective effect of P7C3 was enantiomeric specific. […] Each compound was evaluated in triplicate with similar results.
Extensive evidence pioneered by the laboratory of Xiaodong Wang has shown that an intrinsic pathway leading to programmed cell death emanates from mitochondria (Liu et al., Cell 1996, 86, 147-157; Yang et al., Science 1997, 275, 1129-1132). With the help of the Wang lab, assays were established to test whether Example 45 Compound might protect mitochondria from calcium-induced dissolution (Distelmaier et al., Cytometry A 2008, 73, 129-138). Tetramethylrhodamine methyl ester (TMRM) is a cell-permeant, cationic red-orange fluorescent dye that is readily sequestered by active mitochondria. When loaded with TMRM dye, vehicle-only treated cells released the dye within 15 minutes of exposure to the calcium ionophore A23187. By contrast, dye release was prevented in cells exposed to as little as […] of Example 45 Compound (FIG. 18A).
Since P7C3 ameliorates the death of newborn neurons in the dentate gyrus in living mice, it is possible that its function might relate to mitochondrial integrity. Assays were established to test whether P7C3 might protect cultured U2OS cells from calcium-induced mitochondrial dissolution (Distelmaier et al., Cytometry A 2008, 73, 129-138). Tetramethylrhodamine methylester (TMRM) dye is sequestered by active mitochondria, and, when loaded with TMRM, vehicle-treated cells released the dye within 15 rain of exposure to the calcium ionophor A23 187.

C. elegans = assay: MPP+-induced mobility deficits in C. elegans; assay type: in vivo; details: for locomotion (distance traveled by the head in 10 seconds divided by body length): 10 μM with MPP+, VEH 16.2±0.49, MPP+ alone 7.2±0.68; for mobility protected, relative to normal: 10 μM, 5 mM MPP+ for 32 hours
Protocol: FIG. 32. Protective efficacy of P7C3 and P7C3A20 for MPP^+-induced mobility deficits in C. elegans. The top panels show worms with the head identified by a green dot. […] Tracking is visualized as starting with blue color and progressing to white by the completion of 10 seconds. The green dot was used to determine locomotion, defined as the distance traveled by the head of the worm in 10 seconds divided by body length. Scale bars represent 70 μM. […] When worms were treated with MPP^+, locomotion was reduced more than 50% (7.2±0.68; n=31, p<0.0001). […] P7C3A20 protected mobility to almost 80% of normal (12.8±0.81; n=34, *p<0.01), and 10 μM P7C3 protected almost 60% (m.i. of 9.6±0.72; n=28, *p<0.05). […] (7.7±1.0; n=30). Experiments were performed in triplicate and data are expressed as mean±SEM.
As a behavioral measure of toxicity, worm mobility was assessed 32 hours after MPP^+-exposure. To quantify worm locomotion, video representations were recorded for 10 seconds at 4× magnification using a Nikon Eclipse 80i microscope. Each video segment consisted of 160 frames, and the head of each worm (10-20 worms per group, repeated in triplicate) was manually tracked in each frame using Imera software. The body length of each worm was also measured by Imera software. The ratio of distance traveled to body length was used to determine the movement index, defined as locomotion, as previously established (Wang J., et al. (2009) An ALS-linked mutant SOD1 produces a locomotor defect associated with aggregation and synaptic dysfunction when expressed in neurons of Caenorhabditis elegans. PLoS Genetics e10003350). […] Co-incubation of MPP^+-exposed worms with 10 μM P7C3A20 conferred 80% preservation of locomotion, while 10 μM P7C3 protected to about 60% of normal levels.
A video-based assay was used to assess the swim speed, distance traveled and length of worms. After exposure to MPP^+ for 32 hrs, worms were washed, resuspended in M9 buffer (500 ul) and transferred to microscope slides. A 10 second movie was recorded at 4× magnification using a Nikon Eclipse 80i microscope. Each movie consisted of 160 frames and the distance traveled by the head of each worm was manually tracked in each frame using Imera software. This software was also used to measure the length of the worm body. The ratio of movement distance to body length was used as a movement index, and defined as locomotion per standard protocols.

[1] = system: dopaminergic neurons in C. elegans; assay: MPP+ toxicity to dopaminergic neurons in C. elegans; assay type: in vivo; details: for protection of dopaminergic neurons from MPP+: 10 μM, 5 mM MPP+ for 40 hrs
Protocol: FIG. 31. Neuroprotective efficacy of P7C3 and P7C3A20 for MPP^+ toxicity to dopaminergic neurons in C. elegans. Worms were treated with 5 mM MPP^+ for 40 hrs, with pre-incubation for 30 minutes with different concentrations of test compounds or vehicle. […] By contrast, GFP expression was lost after 40 hrs of MPP^+ exposure (unfilled arrow). […] 20 worms were analyzed per group, and each group was performed in triplicate. Data are expressed as mean±SEM.
Genes, metabolic signaling pathways, neurotransmitters and receptor pharmacology are highly conserved between C. elegans and vertebrates, and exposure of C. elegans to MPP^+ has been reported to selectively kill dopaminergic neurons and impair mobility. To investigate the neuroprotective efficacy of P7C3A20, P7C3 and Dimebon from MPP^+ toxicity in C. elegans, we monitored dopaminergic cell death in a transgenic strain of worms in which dopaminergic neurons fluoresce green by virtue of GFP expression driven by the dopaminergic neuron-specific promoter dat-1. […] Cephalic sensilla dopaminergic dendrites were observed under 40× magnification (AMG, Evos fl microscope), and GFP signal was followed from the nerve ring to the tip of the nose, following established protocols. If any part of a dendrite was absent, as evidenced by loss of GFP signal, it was counted as degraded. All analyses were performed blind to treatment group.
Synchronized L1 larvae were plated into each well of a 12-well plate (approximately 400 larvae per well) containing PBS, Vehicle or compounds, with or without 5 mM MPP^+ iodide (Sigma) freshly diluted in PBS. DMSO was used as vehicle (VEH) and the concentration in treatment groups was maintained below 1%. The assay solution ([…]) was incubated for 40 hrs at 20 degrees Celsius. The worms were then washed in dH2O and supernatant was aspirated. To examine dopaminergic neuron toxicity, worms were anesthetized (0.1% tricaine, 0.01% tetramizole) for 5 min and then transferred to microscope slides and coverslipped. Pictures were taken at 40× magnification (AMG, Evos fl microscope). Each experiment was conducted in triplicate with 10-20 worms counted per condition. For quantification, investigators were blind to treatment condition. Quantification was done by observing all four cephalic sensilla (CEP) dendrites, per standard protocol. Briefly, GFP fluorescence was visualized from the nerve ring to the tip of the nose, and if any portion of a dendrite was absent then it was counted as being degenerated.

Row | Structure (SMILES) | lowest concentration that blocked TMRM dye release (U2OS cells; U2OS cells) [nM] | locomotion (distance traveled by the head in 10 seconds divided by body length) (C. elegans) | onset of neuroprotective efficacy ([1]; 1.0 μM) [%] | protection of dopaminergic neurons from MPP+ [1] | mobility protected, relative to normal (C. elegans) | lowest amount that prevented TMRM dye release (U2OS cells) [ng] | preservation of mitochondrial membrane potential (U2OS cells; TMRM dye) | onset of neuroprotective efficacy ([1]; 0.1 μM) [%]
1 | OC(CNc1ccccc1)Cn1c2ccc(Br)cc2c2cc(Br)ccc21 (stereo not shown) [Example P7C3] | ≤ 10 | 9.6±0.72 | 35 | about 50% | – | – | – | –
2 | Cc1ccc2c(c1)c1c(n2CCc2ccc(C)nc2)CCN(C)C1 [Dimebon, 2,3,4,5-Tetrahydro-2,8-dimethyl-5-(2-(6-methyl-3-pyridyl)ethyl)-1H-pyrido(4,3-b)indole, reference compound] | – | 7.7±1.0 | – | failed to protect dopaminergic neurons | offered no protective efficacy; also recorded: did not offer any protection | – | – | –
3 | OC(CNc1ccccc1)Cn1c2ccc(Br)cc2c2cc(Br)ccc21 (stereo not shown) [Example 45 Compound] | – | – | – | – | – | ≤ 10 | – | –
4 | COc1cccc(NCC(F)Cn2c3ccc(Br)cc3c3cc(Br)ccc32)c1 (stereo not shown) [Example P7C3A20, N-(3-(3,6-dibromo-9H-carbazol-9-yl)-2-fluoropropyl)-3-methoxyaniline] | – | 12.8±0.81 | – | 80% | 80% | – | protection of mitochondrial membrane permeability was observed at an enhanced level; also recorded: exhibited dye release protection at all doses tested | 30
